Results from patent US20250171438A1 (Agios Pharmaceuticals, Inc., priority 2022, published 2025).

biological target: T1, human PAH with the R408W mutation (Homo sapiens, UniProt P00439, R408W); experiment: Cell Based Phenylalanine Flux Assay; details: A375 cells expressing human R408W PAH; 24 hrs compound incubation; 13C-Tyrosine by LC-MS; average where tested multiple times; read-out: AC50
T1 construct: expressed in transfected cells
T1 sequence (P00439 1-452 R408W): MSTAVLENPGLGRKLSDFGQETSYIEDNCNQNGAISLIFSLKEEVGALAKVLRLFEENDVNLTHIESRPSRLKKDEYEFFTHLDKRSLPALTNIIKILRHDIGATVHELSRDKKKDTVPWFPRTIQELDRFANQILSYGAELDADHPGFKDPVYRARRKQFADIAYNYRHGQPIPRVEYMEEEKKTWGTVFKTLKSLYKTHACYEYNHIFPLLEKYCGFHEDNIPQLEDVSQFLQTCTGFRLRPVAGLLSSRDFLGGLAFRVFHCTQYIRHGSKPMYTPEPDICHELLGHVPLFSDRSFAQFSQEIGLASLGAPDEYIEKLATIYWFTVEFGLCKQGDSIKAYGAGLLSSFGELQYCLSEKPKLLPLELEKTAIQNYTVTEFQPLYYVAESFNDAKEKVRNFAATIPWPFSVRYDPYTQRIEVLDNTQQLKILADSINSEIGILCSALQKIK

AC50 [nM] | Compound
500 to 1000 | O=C(N1CCc2[nH]cnc2[C@H]1c1nc2ccccc2s1)C1(c2cnco2)CC1 [Example 1629]
500 to 1000 | O=C(c1cnn2cc(-c3ccccn3)ccc12)N1CCc2[nH]cnc2[C@H]1c1nc2ccccc2s1 [Example 1211]
500 to 1000 | Cn1ccc(-c2nnc(C(=O)N3CCc4[nH]cnc4[C@@H]3c3nc4c(F)cccc4s3)o2)n1 [Example 1825, (R)-(4-(4-fluorobenzo[d]thiazol-2-yl)-6,7-dihydro-1H-imidazo[4,5-c]pyridin-5(4H)-yl)(5-(1-methyl-1H-pyrazol-3-yl)-1,3,4-oxadiazol-2-yl)methanone]
500 to 1000 | O=C(c1nncs1)N1CCc2[nH]cnc2[C@H]1c1nc2ccc(Cl)cc2[nH]1 [Example 958, (S)-(4-(6-chloro-1H-benzo[d]imidazol-2-yl)-6,7-dihydro-1H-imidazo[4,5-c]pyridin-5(4H)-yl)(1,3,4-thiadiazol-2-yl)methanone]
1000 to 5000 | O=C(CC1(O)CCC1)N1CCc2[nH]cnc2[C@@H]1c1nc2c(F)cccc2s1 [Example 1648, (R)-1-(4-(4-fluorobenzo[d]thiazol-2-yl)-6,7-dihydro-1H-imidazo[4,5-c]pyridin-5(4H)-yl)-2-(1-hydroxycyclobutyl)ethanone]
1000 to 5000 | CCn1cnnc1C(=O)N1CCc2[nH]cnc2[C@@H]1c1nc2c(F)cccc2s1 [Example 2043, (R)-(4-ethyl-4H-1,2,4-triazol-3-yl)(4-(4-fluorobenzo[d]thiazol-2-yl)-6,7-dihydro-1H-imidazo[4,5-c]pyridin-5(4H)-yl)methanone]
500 to 1000 | CN(C)CCc1ccc2c(C(=O)N3CCc4[nH]cnc4[C@H]3c3nc4c(F)cccc4s3)cnn2c1 [Example 1599, (S)-(6-(2-(dimethylamino)ethyl)pyrazolo[1,5-a]pyridin-3-yl)(4-(4-fluorobenzo[d]thiazol-2-yl)-6,7-dihydro-1H-imidazo[4,5-c]pyridin-5(4H)-yl)methanone]
< 500 | O=C(c1ccon1)N1CCc2[nH]cnc2[C@H]1c1nc2ccc(Br)cc2[nH]1 [Example 981, (S)-(4-(6-bromo-1H-benzo[d]imidazol-2-yl)-6,7-dihydro-1H-imidazo[4,5-c]pyridin-5(4H)-yl)(isoxazol-3-yl)methanone]
< 500 | O=C(c1nnc(-c2cnn(C3CCC3)c2)o1)N1CCc2[nH]cnc2[C@H]1c1nc2ccccc2s1 [Example 1828]
< 500 | O=C(c1cnn2ccc(Br)cc12)N1CCc2[nH]cnc2[C@H]1c1nc2ccccc2s1 [Example 1047]
> 5000 | CCc1ccc2c(C(=O)N3CCc4[nH]cnc4[C@@H]3c3nc4ccccc4s3)cnn2c1 [Example 1244, (R)-(4-(benzo[d]thiazol-2-yl)-6,7-dihydro-1H-imidazo[4,5-c]pyridin-5(4H)-yl)(6-ethylpyrazolo[1,5-a]pyridin-3-yl)methanone]
500 to 1000 | O=C(c1nncs1)N1CCc2[nH]cnc2[C@H]1c1nc2ccc(Br)cc2[nH]1 [Example 977, (S)-(4-(6-bromo-1H-benzo[d]imidazol-2-yl)-6,7-dihydro-1H-imidazo[4,5-c]pyridin-5(4H)-yl)(1,3,4-thiadiazol-2-yl)methanone]
1000 to 5000 | O=C(c1cn(CC2CC2)nc1Cl)N1CCc2[nH]cnc2[C@@H]1c1nc2c(F)cccc2s1 [Example 1984, (R)-(3-chloro-1-(cyclopropylmethyl)-1H-pyrazol-4-yl)(4-(4-fluorobenzo[d]thiazol-2-yl)-6,7-dihydro-1H-imidazo[4,5-c]pyridin-5(4H)-yl)methanone]
1000 to 5000 | O=C(Cc1nc2ccccc2s1)N1CCc2[nH]cnc2[C@H]1c1nc2ccccc2[nH]1 [Example 905]
> 5000 | O=C(C1CC1)N1CCc2[nH]cnc2[C@@H]1c1nc2cccc(F)c2s1 [Example 1260, (R)-cyclopropyl(4-(7-fluorobenzo[d]thiazol-2-yl)-6,7-dihydro-1H-imidazo[4,5-c]pyridin-5(4H)-yl)methanone]
500 to 1000 | O=C(c1ncco1)N1CCc2[nH]cnc2[C@H]1c1nc2c(F)cccc2s1 [Example 1225, (S)-(4-(4-fluorobenzo[d]thiazol-2-yl)-6,7-dihydro-1H-imidazo[4,5-c]pyridin-5(4H)-yl)(oxazol-2-yl)methanone]
1000 to 5000 | Cc1nc(C(C)(C)O)oc1C(=O)N1CCc2[nH]cnc2[C@@H]1c1nc2c(F)cccc2s1 [Example 1472, (R)-(4-(4-fluorobenzo[d]thiazol-2-yl)-6,7-dihydro-1H-imidazo[4,5-c]pyridin-5(4H)-yl)(2-(2-hydroxypropan-2-yl)-4-methyloxazol-5-yl)methanone]
1000 to 5000 | O=C(c1ccnn1C1CC1)N1CCc2[nH]cnc2[C@@H]1c1nc2c(F)cccc2s1 [Example 1736, (R)-(1-cyclopropyl-1H-pyrazol-5-yl)(4-(4-fluorobenzo[d]thiazol-2-yl)-6,7-dihydro-1H-imidazo[4,5-c]pyridin-5(4H)-yl)methanone]
1000 to 5000 | O=C(c1cnc(Cc2ccccc2)s1)N1CCc2[nH]cnc2[C@@H]1c1nc2ccccc2s1 [Example 1228, (R)-(4-(benzo[d]thiazol-2-yl)-6,7-dihydro-1H-imidazo[4,5-c]pyridin-5(4H)-yl)(2-benzylthiazol-5-yl)methanone]
500 to 1000 | O=C(c1ccnn1-c1ccccc1)N1CCc2[nH]cnc2[C@H]1c1nc2c(F)cccc2s1 [Example 1605]
500 to 1000 | O=C(c1oc(-c2ccccn2)nc1C(F)(F)F)N1CCCc2[nH]cnc2[C@H]1c1nc2ccccc2s1 [Example 2121, (S)-(4-(benzo[d]thiazol-2-yl)-7,8-dihydroimidazo[4,5-c]azepin-5(1H,4H,6H)-yl)(2-(pyridin-2-yl)-4-(trifluoromethyl)oxazol-5-yl)methanone]
500 to 1000 | CC(C)n1ncc(C(=O)N2CCc3[nH]cnc3[C@H]2c2nc3c(F)cccc3s2)c1Br [Example 1953]
> 5000 | O=C(c1cnn2ccc(Cl)cc12)N1CCc2[nH]cnc2[C@@H]1c1nc2ccc(Br)cc2[nH]1 [Example 966, (R)-(4-(6-bromo-1H-benzo[d]imidazol-2-yl)-6,7-dihydro-1H-imidazo[4,5-c]pyridin-5(4H)-yl)(5-chloropyrazolo[1,5-a]pyridin-3-yl)methanone]
> 5000 | O=C(c1cnn2ccccc12)N1CCc2[nH]cnc2[C@@H]1c1nc2ccc(F)cc2s1 [Example 1100, (R)-(4-(6-fluorobenzo[d]thiazol-2-yl)-6,7-dihydro-1H-imidazo[4,5-c]pyridin-5(4H)-yl)(pyrazolo[1,5-a]pyridin-3-yl)methanone]
500 to 1000 | O=C(c1nc(Cl)cs1)N1CCc2[nH]cnc2[C@H]1c1nc2ccc(F)cc2s1 [Example 1142]
1000 to 5000 | O=C(c1nccs1)N1CCc2nc[nH]c2[C@@H]1c1nc2c(F)cccc2s1 [Example 1119, (R)-(4-(4-fluorobenzo[d]thiazol-2-yl)-6,7-dihydro-3H-imidazo[4,5-c]pyridin-5(4H)-yl)(thiazol-2-yl)methanone]

same assay, conditions: A375 cells expressing human R408W PAH; 24 hrs with compound; 13C-Tyrosine by LC-MS; average where tested multiple times; read-out: AC50

AC50 [nM] | Compound
1000 to 5000 | O=C(c1ccc2ncsc2c1)N1CCc2[nH]cnc2C1c1nc2ccccc2[nH]1 (centres unmarked)
1000 to 5000 | Cc1ncc(C(=O)N2CCc3[nH]cnc3C2c2nc3ccccc3s2)s1 (centres unmarked)
1000 to 5000 | O=C(CCc1nccs1)N1CCc2[nH]cnc2C1c1nc2ccc(Cl)cc2s1 (centres unmarked)
1000 to 5000 | Cc1nc(C(C)(C)O)oc1C(=O)N1CC2(CC2)c2[nH]cnc2C1c1nc2ccccc2s1 (centres unmarked)
> 5000 | O=C(c1cnn2ccc(Cl)cc12)N1CCc2[nH]cnc2C1c1nc2ccc(Cl)cc2[nH]1 (centres unmarked)
> 5000 | O=C(Cc1nncs1)N1CCc2[nH]cnc2C1c1nc2ccc(F)cc2s1 (centres unmarked)
1000 to 5000 | O=C(Cc1nccs1)N1CCc2[nH]cnc2C1c1nc2ccc(Br)cc2s1 (centres unmarked)
1000 to 5000 | O=C(Cc1nccs1)N1CCc2[nH]cnc2C1c1nc2ccc(F)cc2[nH]1 (centres unmarked)
> 5000 | O=C(c1cnco1)N1CCc2[nH]cnc2C1c1nc2ccc(F)cc2s1 (centres unmarked)
1000 to 5000 | O=C(CCc1nccs1)N1CCc2nc[nH]c2C1c1nc2cc(Br)ccc2s1 (centres unmarked) [listing 1 of 2 here]
1000 to 5000 | Cc1nnc(CCC(=O)N2CCc3[nH]cnc3C2c2nc3ccc(Cl)cc3[nH]2)s1 (centres unmarked)
> 5000 | O=C(CCc1nccs1)N1CCc2nc[nH]c2C1c1nc2cc(Br)ccc2s1 (centres unmarked) [listing 2 of 2 here]
1000 to 5000 | O=C(Cc1coc(C(F)F)n1)N1CCc2[nH]cnc2[C@H]1c1nc2ccccc2[nH]1 [(S)-1-(4-(1H-benzo[d]imidazol-2-yl)-6,7-dihydro-1H-imidazo[4,5-c]pyridin-5(4H)-yl)-2-(2-(difluoromethyl)oxazol-4-yl)ethanone]
> 5000 | Cc1nnc(CC(=O)N2CCc3[nH]cnc3[C@H]2c2nc3ccccc3[nH]2)s1 [(S)-1-(4-(1H-benzo[d]imidazol-2-yl)-1,4,6,7-tetrahydro-5H-imidazo[4,5-c]pyridin-5-yl)-2-(5-methyl-1,3,4-thiadiazol-2-yl)ethan-1-one]
> 5000 | Cc1nnc(C(=O)N2CCc3[nH]cnc3C2c2nc3ccc(F)cc3s2)s1 (centres unmarked)
1000 to 5000 | O=C(CCCc1nc2ccccc2s1)N1CCc2[nH]cnc2[C@H]1c1nc2ccccc2[nH]1 [(S)-1-(4-(1H-benzo[d]imidazol-2-yl)-1,4,6,7-tetrahydro-5H-imidazo[4,5-c]pyridin-5-yl)-4-(benzo[d]thiazol-2-yl)butan-1-one]
1000 to 5000 | O=C(c1nnc(CCCN2CCOCC2)o1)N1CCc2[nH]cnc2C1c1nc2ccccc2s1 (centres unmarked)
> 5000 | O=C(c1nccs1)N1CCc2[nH]cnc2C1c1nc2ccc(Cl)cc2s1 (centres unmarked)
